Data on 2 compounds can be found in patent US8080539B2, “Method of treating human preeclampsia employing resibufagenin” (Scott and White Healthcare, priority 2004, dated 2011).

Where “and” joins values, the source holds several entries; their conditions need not be identical. Equal values may be shown once.

Assay [1] deals with vessels from normal pregnant animals or rats. The assay is described as follows: Perfusion of dissected vessels from normal pregnant rats with marinobufagenin. Also on record: species or system rat. The note with it: vessels from normal pregnant rats perfused with marinobufagenin. The source says: (§1) It is elevated substantially more in preeclamptic rats.
For assay [2], the system named is vessels from preeclamptic rats. Kind of assay: Perfusion of dissected vessels from preeclamptic rats with marinobufagenin. Details: species or system rat. The note with it: vessels from preeclamptic rats perfused with marinobufagenin; average.
Description: as §1

In a further assay the test system is pregnant rats. Kind of assay: Blood pressure (tail cuff) in pregnant rats made hypertensive with MBG, then treated with RBG. In kind it is in vivo, rat. As to the method:
In order to confirm the effectiveness of RBG, experiments were performed. In the experiment, a group of four pregnant rats was provided with a blood pressure cuff on their tails in order to determine the base line blood pressure as shown in the table. In order to create hypertension, MBG was administered to the rats.
A dosage of approximately 7 mg per kg of rat weight with the rats weighing in the range of about 200-250 g was employed daily in order to determine the effectiveness of resibufagenin in the treatment of preeclampsia. The dosage was administered intraperitonially and the rats monitored after about three to four days of treatment. The MBG and RBG were administered in a suitable vehicle such as dimethylsulfoxide (DMSO).

Another assay deals with cellular systems. Particulars: cited from earlier work.

Turning to `C[C@]12CC[C@H](O)C[C@@]1(O)CC[C@@H]1[C@@H]2CC[C@]2(C)[C@@H](c3ccc(=O)oc3)C[C@H]3O[C@]132` [MBG, marinobufagenin], the constriction of vessels result in assay [1] is given as “do not constrict”. Also, the “constriction of vessels as compared with control” value in assay [2] is reported as “about 36%”. Besides, in the assay with pregnant rats (individual pregnant rats, tail blood pressure cuff, MBG administered to create hypertension), the “BP after MBG” value is 125 mmHg and 130 mmHg and 115 mmHg and 135 mmHg.
In the case of `C[C@]12CC[C@H](O)C[C@H]1CC[C@@H]1[C@@H]2CC[C@]2(C)[C@@H](c3ccc(=O)oc3)C[C@H]3O[C@]132` [RBG, Resibufagenin], the “biological effect in cellular systems” value in the assay with cellular systems is “no biological effect”. Besides, the “change in blood pressure after treatment with RBG” value with pregnant rats (all four pregnant rats, approximately 7 mg per kg daily intraperitoneally, about three to four days) was “substantial reduction in blood pressure”. In addition, in the assay on pregnant rats (individual pregnant rats made hypertensive with MBG, RBG approximately 7 mg per kg daily intraperitoneally in DMSO, after about three to four days of treatment), the “BP after RBG” value was 95 mmHg and 120 mmHg and 110 mmHg and 105 mmHg.
